Values quoted from earlier work as cited in patent publication US20150133416A1, “Pharmaceutical Composition Comprising Abiraterone Acetate” (Jagotec AG, priority 2012, published 2015).
Like-named read-outs stand apart in the source and are kept apart here.

What was measured:
[1] = not given; remark: listed apart in the source
[2] = 20 mg delayed release capsules administered with apple sauce

Row | SMILES | AUC elevation compared with the fasted state (after a high fat meal) [fold] | Cmax elevation compared with the fasted state (after a high fat meal) [fold] | AUC elevation compared with the fasted state (after a low fat meal) [fold] | Cmax elevation compared with the fasted state (after a low fat meal) [fold] | aqueous solubility [1] | log P [1] | reduction in Cmax [2] [%]
1 | C[C@]12CC[C@H](O)CC1=CC[C@@H]1[C@@H]2CC[C@]2(C)C(c3cccnc3)=CC[C@@H]12 [abiraterone] | 10 | 17 | 5 | 7 | poor | very high | 
2 | COc1ccc2[nH]c([S+]([O-])Cc3ncc(C)c(OC)c3C)nc2c1 (stereo not shown) [omeprazole] |  |  |  |  |  |  | 25
